Source: patent publication US20180008587A1, “THIOHYDANTOIN ANDROGEN RECEPTOR ANTAGONISTS FOR THE TREATMENT OF CANCER” (Jaressen Pharmaceutica NV, priority 2016, published 2018)
Substitutions are numbered along the chain they refer to. Read-outs that look alike come from different tables or passages of the source.

What was measured:
Assay type in all cases: cell-based
[1] = target: T1, F876L mutant Androgen Receptor (AR-F876L) (Homo sapiens, UniProt P10275, F877L); assay: LNCaP-AR-F876L AG reporter assay (ARE firefly luciferase, agonist mode); settings: for Emax: read-out: LNCaP-AR-F876L AG MAX % Stim
T1 construct: expressed in transfected cells; host or cells: LNCaP (LNCaP F876L)
T1 sequence (P10275 1-920 F877L): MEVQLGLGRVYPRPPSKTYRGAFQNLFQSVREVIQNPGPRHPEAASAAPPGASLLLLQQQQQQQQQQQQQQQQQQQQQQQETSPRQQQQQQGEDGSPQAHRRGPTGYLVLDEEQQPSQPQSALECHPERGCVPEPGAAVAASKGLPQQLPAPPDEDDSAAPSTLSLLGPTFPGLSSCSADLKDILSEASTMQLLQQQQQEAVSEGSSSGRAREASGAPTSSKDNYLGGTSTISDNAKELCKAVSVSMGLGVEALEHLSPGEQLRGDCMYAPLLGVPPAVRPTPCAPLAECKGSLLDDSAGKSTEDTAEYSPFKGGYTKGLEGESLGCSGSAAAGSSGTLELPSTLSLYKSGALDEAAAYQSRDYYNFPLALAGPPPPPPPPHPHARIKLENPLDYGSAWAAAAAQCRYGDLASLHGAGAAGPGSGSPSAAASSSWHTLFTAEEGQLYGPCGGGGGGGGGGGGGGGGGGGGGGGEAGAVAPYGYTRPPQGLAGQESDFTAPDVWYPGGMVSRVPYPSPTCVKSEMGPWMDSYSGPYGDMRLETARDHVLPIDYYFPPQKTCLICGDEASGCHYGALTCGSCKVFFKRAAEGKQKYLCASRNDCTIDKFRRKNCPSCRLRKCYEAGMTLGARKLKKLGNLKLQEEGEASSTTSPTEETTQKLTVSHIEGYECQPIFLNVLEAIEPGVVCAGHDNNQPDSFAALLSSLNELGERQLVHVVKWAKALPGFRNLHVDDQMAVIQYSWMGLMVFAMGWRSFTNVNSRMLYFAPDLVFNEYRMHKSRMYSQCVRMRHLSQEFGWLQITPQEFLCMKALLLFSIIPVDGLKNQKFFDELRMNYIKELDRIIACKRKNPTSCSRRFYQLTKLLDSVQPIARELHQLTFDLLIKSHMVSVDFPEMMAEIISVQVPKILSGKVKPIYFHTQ
Protocol: (§1) A stable pooled-population cell line was generated using puromycin (Life Technologies) selection at 1:10,000 v/v. The protocol below was used for both cell lines and for testing of the compounds of Formula (I) of the present invention.
(§2) LNCaP cells were grown to about 80% confluence, media removed and cells rinsed in Hank's balanced salt solution prior to separation from the plate with 0.05% Trypsin EDTA. Cells were lifted and trypsin negated in complete CSS (charcoal stripped serum) culture media. […] Agonist challenge was at 400 pM for WT assay and 600 pM for F876L assay. Plates containing cells and compounds herein were incubated for a further 20-24 hours at 37° C., 5% CO2 before addition of 40 μL/well of Steady-Glo Luciferase Assay System Reagent (Promega# E2520). After 1 h, plates were read for luminescence on a BMG Pherastar.
(§3) EC/IC50 calculations were achieved utilizing calculated RLU data and data fitting macros. Data were fit using least-squares methods to the following formula: […]

[2] = target: T1, F876L mutant Androgen Receptor (AR-F876L); assay: LNCaP-AR-F876L ANT reporter assay (ARE firefly luciferase, antagonist mode); settings: for Emax: read-out: LNCaP-AR-F876L ANT MAX % Inh; for IC50: read-out: LNCaP-AR-F876L ANT pIC50 (converted)
Protocol: as §1, §2, §3

[3] = target: T2, wild-type Androgen Receptor (AR-wt) (Homo sapiens, UniProt P10275); assay: LNCaP-AR-wt ANT reporter assay (ARE firefly luciferase, antagonist mode); settings: for IC50: antagonist mode, 400 pM R-1881 challenge, −Log10(IC50 [Molar]), read-out: LNCaP-AR-wt ANT pIC50 (converted); for Emax: read-out: LNCaP-AR-wt ANT MAX % Inh
T2 construct: expressed in transfected cells; host or cells: LNCaP (LNCaP AR (cs))
T2 sequence (P10275 1-920): T1 sequence (P10275 1-920 F877L) with L877F
Protocol: as §1, §2, §3

[4] = target: T2, wild-type Androgen Receptor (AR-wt); assay: LNCaP-AR-wt AG reporter assay (ARE firefly luciferase, agonist mode); settings: for Emax: read-out: LNCaP-AR-wt AG MAX % Stim
Protocol: as §1, §2, §3

[5] = agonist mode, −Log10(EC50 [Molar]), read-out: LNCaP-AR-F876L AG pEC50 (converted)
[6] = maximum % stimulation (agonist response) over tested concentration range
[7] = maximum % inhibition of R1881 control response over tested concentration range
[8] = agonist mode, −Log10(EC50 [Molar]), read-out: LNCaP-AR-wt AG pEC50 (converted)

Row | EC50 [1, 5] [nM] | Emax [1, 6] [%] | Emax [2, 7] [%] | IC50 [2] [nM] | IC50 [3] [nM] | Emax [3, 7] [%] | EC50 [4, 8] [nM] | Emax [4, 6] [%] | SMILES | EC50 [1] [nM] | Emax [1] [%] | Emax [2] [%] | Emax [3] [%] | EC50 [4] [nM] | Emax [4] [%]
1 | > 15100 | -0.1 | 99.9 | 295 | 676 | 101 | > 15100 | -0.1 | Cc1cc(N2C(=O)C3(CCC3)N(c3ccc(C(=O)Nc4ccccc4F)c(F)c3)C2=S)cnc1C#N [Cpd 11, 4-[6-(6-cyano-5-methyl-3-pyridyl)-5-oxo-7-thioxo-6,8-diazaspiro[3.4]octan-8-yl]-2-fluoro-N-(2-fluorophenyl)benzamide] | – | – | – | – | – | –
2 | > 15100 | 0.1 | 101 | 229 | 407 | 102 | > 15100 | 0.4 | Cc1cc(N2C(=O)C3(CCC3)N(c3ccc(OC4CCSCC4)cc3)C2=S)cnc1C#N [Cpd 13, 3-methyl-5-[5-oxo-8-(4-tetrahydrothiopyran-4-yloxyphenyl)-7-thioxo-6,8-diazaspiro[3.4]octan-6-yl]pyridine-2-carbonitrile] | – | – | – | – | – | –
3 | > 15100 | -0.1 | 99.7 | 112 | 87.1 | 102 | > 15100 | 0 | N#Cc1ncc(N2C(=O)C3(CCC3)N(c3ccc(C(=O)NCCc4ccncc4)c(F)c3)C2=S)cc1C(F)(F)F [Cpd 14, 4-[6-[6-cyano-5-(trifluoromethyl)-3-pyridyl]-5-oxo-7-thioxo-6,8-diazaspiro[3.4]octan-8-yl]-2-fluoro-N-[2-(4-pyridyl)ethyl]benzamide] | – | – | – | – | – | –
4 | > 15100 | 0 | 102 | 46.8 | 209 | 103 | > 15100 | -0.1 | N#Cc1ncc(N2C(=O)C3(CCC3)N(c3ccc(C(=O)NCCc4ccccn4)c(F)c3)C2=S)cc1C(F)(F)F [Cpd 15, 4-[6-[6-cyano-5-(trifluoromethyl)-3-pyridyl]-5-oxo-7-thioxo-6,8-diazaspiro[3.4]octan-8-yl]-2-fluoro-N-[2-(2-pyridyl)ethyl]benzamide] | – | – | – | – | – | –
5 | > 15100 | 0 | 98.7 | 269 | 631 | 99.2 | > 15100 | 0.3 | CNC(=O)c1ccc(N2C(=S)N(c3cnc(C#N)c(C)c3)C(=O)C23CCC3)cc1F [Cpd 16, 4-[6-(6-cyano-5-methyl-3-pyridyl)-5-oxo-7-thioxo-6,8-diazaspiro[3.4]octan-8-yl]-2-fluoro-N-methyl-benzamide] | – | – | – | – | – | –
6 | > 15100 | 0.2 | 95.4 | 977 | 1320 | 90 | > 15100 | 1.3 | N#Cc1ncc(N2C(=O)C3(CCC3)N(c3cccc(Oc4ccccc4)c3)C2=S)cc1C(F)(F)F [Cpd 20, 5-[5-oxo-8-(3-phenoxyphenyl)-7-thioxo-6,8-diazaspiro[3.4]octan-6-yl]-3-(trifluoromethyl)pyridine-2-carbonitrile] | – | – | – | – | – | –
7 | > 15100 | 0.1 | 98.6 | 389 | 724 | 100 | > 15100 | -0.2 | N#Cc1ncc(N2C(=O)C3(CCC3)N(c3ccc(C(=O)NCC4CCCC4)c(F)c3)C2=S)cc1C(F)(F)F [Cpd 21, 4-[6-[6-cyano-5-(trifluoromethyl)-3-pyridyl]-5-oxo-7-thioxo-6,8-diazaspiro[3.4]octan-8-yl]-N-(cyclopentylmethyl)-2-fluoro-benzamide] | – | – | – | – | – | –

Row | SMILES | EC50 [1, 5] [nM] | Emax [1, 6] [%] | Emax [2, 7] [%] | IC50 [2] [nM] | IC50 [3] [nM] | Emax [3, 7] [%] | EC50 [4, 8] [nM] | Emax [4, 6] [%] | EC50 [1] [nM] | Emax [1] [%] | Emax [2] [%] | Emax [3] [%] | EC50 [4] [nM] | Emax [4] [%]
8 | CNC(=O)c1ccc(N2C(=S)N(c3cnc(C#N)c(C)c3)C(=O)C2(C)C)cc1F [Cpd 12, 4-[3-(6-cyano-5-methyl-3-pyridyl)-5,5-dimethyl-4-oxo-2-thioxo-imidazolidin-1-yl]-2-fluoro-N-methyl-benzamide] | – | – | – | 229 | 1740 | – | – | – | > 15100 | -0.3 | 98.7 | 98.4 | > 15100 | 0.9
9 | CC(C)(O)CNC(=O)c1ccc(N2C(=S)N(c3cnc(C#N)c(C(F)(F)F)c3)C(=O)C23CCC3)cc1F [Cpd 17, 4-[6-[6-cyano-5-(trifluoromethyl)-3-pyridyl]-5-oxo-7-thioxo-6,8-diazaspiro[3.4]octan-8-yl]-2-fluoro-N-(2-hydroxy-2-methyl-propyl)benzamide] | – | – | – | 1100 | 2690 | – | – | – | > 15100 | 0.1 | 97.2 | 95.5 | > 15100 | -0.1
10 | N#Cc1ncc(N2C(=O)C3(CCC3)N(c3ccc4ccccc4c3)C2=S)cc1C(F)(F)F [Cpd 18, 5-[8-(2-naphthyl)-5-oxo-7-thioxo-6,8-diazaspiro[3.4]octan-6-yl]-3-(trifluoromethyl)pyridine-2-carbonitrile] | – | – | – | 191 | 204 | – | – | – | > 15100 | 0 | 101 | 101 | > 15100 | -0.2
11 | CN1CCC(Oc2ccc(N3C(=S)N(c4cnc(C#N)c(C(F)(F)F)c4)C(=O)C3(C)C)cc2)CC1 [Cpd 19, 5-[4,4-dimethyl-3-[4-[(1-methyl-4-piperidyl)oxy]phenyl]-5-oxo-2-thioxo-imidazolidin-1-yl]-3-(trifluoromethyl)pyridine-2-carbonitrile] | – | – | – | 525 | 871 | – | – | – | > 15100 | 0.2 | 98.1 | 99.6 | > 15100 | 0.3
